{
  "source": "patent US20200405697A1",
  "about": "“Antitumor Agent” (Taiho Pharmaceutical Co., Ltd, priority 2017, published 2020)",
  "data": [
    {"molecular_target": "T1, human RNR (histidine tagged human M1 and human M2 proteins) (Homo sapiens, UniProt P23921)", "T1 construct": "made in house; host or cells: Escherichia coli", "T1 sequence (P23921 1-792)": "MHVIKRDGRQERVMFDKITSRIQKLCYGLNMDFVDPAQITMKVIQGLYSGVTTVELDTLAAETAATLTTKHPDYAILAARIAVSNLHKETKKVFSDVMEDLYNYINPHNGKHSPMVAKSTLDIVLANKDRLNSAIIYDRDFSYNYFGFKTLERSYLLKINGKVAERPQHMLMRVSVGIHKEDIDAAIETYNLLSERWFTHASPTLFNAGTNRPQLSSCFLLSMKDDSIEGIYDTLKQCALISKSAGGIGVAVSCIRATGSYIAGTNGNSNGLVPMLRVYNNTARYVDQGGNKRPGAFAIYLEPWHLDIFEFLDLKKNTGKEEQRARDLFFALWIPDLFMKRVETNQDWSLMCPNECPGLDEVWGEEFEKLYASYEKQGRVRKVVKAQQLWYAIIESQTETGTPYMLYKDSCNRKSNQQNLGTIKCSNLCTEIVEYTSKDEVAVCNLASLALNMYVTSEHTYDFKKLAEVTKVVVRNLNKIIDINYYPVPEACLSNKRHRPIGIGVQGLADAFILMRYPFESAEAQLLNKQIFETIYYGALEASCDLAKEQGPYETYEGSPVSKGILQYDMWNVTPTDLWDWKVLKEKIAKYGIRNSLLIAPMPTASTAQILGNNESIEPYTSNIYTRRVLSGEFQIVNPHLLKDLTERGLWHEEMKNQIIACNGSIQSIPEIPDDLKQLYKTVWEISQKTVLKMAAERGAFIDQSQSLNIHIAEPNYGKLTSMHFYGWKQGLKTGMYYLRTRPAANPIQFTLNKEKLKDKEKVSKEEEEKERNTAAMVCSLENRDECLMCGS", "test": "Human RNR inhibition effect (dCDP formation from CDP)", "type": "biochemical", "settings": "10 μM CDP, 37° C. for 30 minutes, read-out: RNR inhibitory activity IC50", "summary_of_the_method": "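His-tagged human M1 (isoform 1) and N-terminal 59-aa-truncated M2 (isoform 2), E. coli-expressed, Ni-purified, preincubated 20 min with compound (1% DMSO). Reaction with 10 μM CDP, 2 mM ATP, 0.24 mM NADPH, 6 mM DTT, 4 mM Mg acetate, 100 mM KCl, 50 mM HEPES pH 7.2, 30 min at 37° C. dCDP formed quantified by reverse-phase HPLC after heat stop.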", "units": {"IC50": "nM"}, "values": [
      {"smiles": "Cc1ccc(F)c([C@@H](C)[C@H](NS(=O)(=O)c2cc(C(=O)O)c(Cl)cc2C(N)=O)c2n[nH]c(=O)o2)c1C", "note": "[Example 38, 4-carbamoyl-2-chloro-5-(N-((1S,2R)-2-(6-fluoro-2,3-dimethylphenyl)-1-(5-oxo-4,5-dihydro-1,3,4-oxadiazol-2-yl)propyl)sulfamoyl)benzoic acid]", "IC50": 190},
      {"smiles": "Cc1c(Cl)ccc(F)c1[C@@H](C)[C@H](NS(=O)(=O)c1ccc(F)c2c1OCCC2(C)O)c1n[nH]c(=O)o1", "note": "(single isomer, unassigned) [Example 229A]", "IC50": 60},
      {"smiles": "Cc1ccc(F)c([C@@H](C)[C@H](NS(=O)(=O)c2ccc3[nH]c(=O)[nH]c3c2)c2n[nH]c(=O)o2)c1C", "note": "[Example 165, N-((1S,2R)-2-(6-fluoro-2,3-dimethylphenyl)-1-(5-oxo-4,5-dihydro-1,3,4-oxadiazol-2-yl)propyl)-2-oxo-2,3-dihydro-1H-benzo[d]imidazole-5-sulfonamide]", "IC50": 830},
      {"smiles": "COc1c(S(=O)(=O)N[C@H](c2n[nH]c(=O)o2)[C@H](C)c2c(F)ccc(C)c2C)ccc(Cl)c1C(C)O", "note": "(single isomer, unassigned) [Example 208B]", "IC50": 60},
      {"smiles": "Cc1ccc(F)c([C@@H](C)[C@H](NS(=O)(=O)c2ccc(Cl)c3c2OCCN3CC(F)F)c2n[nH]c(=O)o2)c1C", "note": "[Example 102, 5-chloro-4-(2,2-difluoroethyl)-N-((1S,2R)-2-(6-fluoro-2,3-dimethylphenyl)-1-(5-oxo-4,5-dihydro-2,3,4-oxadiazol-2-yl)propyl)-3,4-dihydro-2H-benzo[b][1,4]oxazine-8-sulfonamide]", "IC50": 140},
      {"smiles": "COc1cc(N)ccc1S(=O)(=O)N[C@H](c1n[nH]c(=O)o1)[C@H](C)c1cccc2cccc(C)c12", "note": "[Example 269, 4-amino-2-methoxy-N-((1S,2R)-2-(8-methylnaphthalen-1-yl)-1-(5-oxo-4,5-dihydro-1,3,4-oxadiazol-2-yl)propyl)benzenesulfonamide]", "IC50": 510},
      {"smiles": "COc1cc(Cl)ccc1S(=O)(=O)N[C@H](c1n[nH]c(=O)o1)[C@H](C)c1c(F)ccc(-c2ccc(N3CCOCC3)nc2)c1C", "note": "[Example 315, 4-chloro-N-((1S,2R)-2-(6-fluoro-2-methyl-3-(6-morpholinopyridin-3-yl)phenyl)-1-(5-oxo-4,5-dihydro-1,3,4-oxadiazol-2-yl)propyl)-2-methoxybenzenesulfonamide]", "IC50": 190},
      {"smiles": "Cc1ccc(F)c([C@@H](C)[C@H](NS(=O)(=O)c2ccc(Cl)c3c2OCCC3(O)C(F)(F)F)c2n[nH]c(=O)o2)c1C", "note": "(single isomer, unassigned) [Example 220A]", "IC50": 60},
      {"smiles": "COc1c(S(=O)(=O)N[C@H](c2n[nH]c(=O)o2)[C@H](C)c2c(F)ccc(C)c2C)ccc(Cl)c1C(C)O", "note": "(single isomer, unassigned) [Example 208A]", "IC50": 100},
      {"smiles": "Cc1c(Br)ccc(F)c1[C@@H](C)[C@H](NS(=O)(=O)c1ccc(Cl)cc1C(N)=O)c1n[nH]c(=O)o1", "note": "[Example 30, 2-(N-((1S,2R)-2-(3-bromo-6-fluoro-2-methylphenyl)-1-(5-oxo-4,5-dihydro-1,3,4-oxadiazol-2-yl)propyl)sulfamoyl)-5-chlorobenzamide]", "IC50": 150},
      {"smiles": "Cc1ccc(F)c([C@@H](C)[C@@H](c2n[nH]c(=O)o2)N(C)S(=O)(=O)c2ccc(Cl)cc2C(N)=O)c1C", "note": "[Example 337, 5-chloro-2-(N-((1S,2R)-2-(6-fluoro-2,3-dimethylphenyl)-1-(5-oxo-4,5-dihydro-1,3,4 oxadiazol-2-yl)propyl)-N-methylsulfamoyl)benzamide]", "IC50": 80},
      {"smiles": "C[C@H](c1c(F)ccc2ccccc12)[C@H](NS(=O)(=O)c1ccc(Cl)c2c1OCCC2O)c1n[nH]c(=O)o1", "note": "(stereo partly drawn) [Example 233, 5-chloro-N-((1S,2R)-2-(2-fluoronaphthalene-1-yl)-1-(5-oxo-4,5-dihydro-1,3,4-oxadiazol-2-yl)propyl)-4-hydroxychroman-8-sulfonamide]", "IC50": 130},
      {"smiles": "Cc1cc(F)c(F)c([C@@H](C)[C@H](NS(=O)(=O)c2ccc(Cl)cc2C(N)=O)c2n[nH]c(=O)o2)c1C", "note": "[Example 13, 5-chloro-2-(N-((1S,2R)-2-(2,3-difluoro-5,6-dimethylphenyl)-1-(5-oxo-4,5-dihydro-1,3,4-oxadiazol-2-yl)propyl)sulfamoyl)benzamide]", "IC50": 140},
      {"smiles": "CCn1cc(-c2ccc(F)c([C@@H](C)[C@H](NS(=O)(=O)c3ccc(Cl)cc3OC)c3n[nH]c(=O)o3)c2C)cn1", "note": "[Example 310, 4-chloro-N-((1S,2R)-2-(3-(1-ethyl-1H-pyrazol-4-yl)-6-fluoro-2-methylphenyl)-1-(5-oxo-4,5-dihydro-1,3,4-oxadiazol-2-yl)propyl)-2-methoxybenzenesulfonamide]", "IC50": 170},
      {"smiles": "[2H]C([2H])([2H])C1(O)CCOc2c(S(=O)(=O)N[C@H](c3n[nH]c(=O)o3)[C@H](C)c3c(F)ccc(C)c3C)ccc(Cl)c21", "note": "(single isomer, unassigned) [Example 200B]", "IC50": 80},
      {"smiles": "Cc1ccc(F)c([C@@H](C)[C@H](NS(=O)(=O)c2ccc(Cl)c(C(=O)N3CCC4(CCC4)C3)n2)c2n[nH]c(=O)o2)c1C", "note": "[Example 115, 5-chloro-N-((1S,2R)-2-(6-fluoro-2,3-dimethylphenyl)-1-(5-oxo-4,5-dihydro-1,3,4-oxadiazol-2-yl)propyl)-6-(6-azaspiro[3.4]octane-6-carbonyl)pyridine-2-sulfonamide]", "IC50": 180},
      {"smiles": "C[C@H](c1cccc2ccccc12)[C@H](NS(=O)(=O)c1ccc(Cl)cc1Cl)c1n[nH]c(=O)o1", "note": "[Example 46, 2,4-dichloro-N-((1S,2R)-2-(naphthalen-1-yl)-1-(5-oxo-4,5-dihydro-1,3,4-oxadiazol-2-yl)propyl)benzenesulfonamide]", "IC50": 840},
      {"smiles": "Cc1ccc(F)c([C@@H](C)[C@H](NS(=O)(=O)c2cc(F)c(Cl)cc2C(N)=O)c2n[nH]c(=O)o2)c1C", "note": "[Example 255, 5-chloro-4-fluoro-2-(N-((1S,2R)-2-(6-fluoro-2,3-dimethylphenyl)-1-(5-oxo-4,5-dihydro-1,3,4-oxadiazol-2-yl)propyl)sulfamoyl)benzamide]", "IC50": 120},
      {"smiles": "COc1cc(Cl)ccc1S(=O)(=O)N[C@H](c1n[nH]c(=O)o1)[C@H](C)c1c(F)ccc(-c2c[nH]nc2C)c1C", "note": "[Example 308, 4-chloro-N-((1S,2R)-2-(6-fluoro-2-methyl-3-(3-methyl-1H-pyrazol-4-yl)phenyl)-1-(5-oxo-4,5-dihydro-1,3,4-oxadiazol-2-yl)propyl)-2-methoxybenzenesulfonamide]", "IC50": 180},
      {"smiles": "COc1c(S(=O)(=O)N[C@H](c2n[nH]c(=O)o2)[C@H](C)c2c(F)ccc(C)c2C)ccc(Cl)c1C(C)=O", "note": "[Example 294, 3-acetyl-4-chloro-N-((1S,2R)-2-(6-fluoro-2,3-dimethylphenyl)-1-(5-oxo-4,5-dihydro-1,3,4-oxadiazol-2-yl)propyl)-2-methoxybenzenesulfonamide]", "IC50": 110},
      {"smiles": "Cc1ccc(F)c([C@@H](C)[C@H](NS(=O)(=O)c2ncc(Cl)cc2C(N)=O)c2n[nH]c(=O)o2)c1C", "note": "[Example 245, 5-chloro-2-(N-((1S,2R)-2-(6-fluoro-2,3-dimethylphenyl)-1-(5-oxo-4,5-dihydro-1,3,4-oxadiazol-2-yl)propyl)sulfamoyl)nicotinamide]", "IC50": 40},
      {"smiles": "CCc1ccc(F)c([C@@H](C)[C@H](NS(=O)(=O)c2ccc(Cl)c(C(C)O)c2OC)c2n[nH]c(=O)o2)c1C", "note": "(stereo partly drawn) [Example 206A, 4-chloro-N-((1S,2R)-2-(3-ethyl-6-fluoro-2-methylphenyl)-1-(5-oxo-4,5-dihydro-1,3,4-oxadiazol-2-yl)propyl)-3-(1-hydroxyethyl)-2-methoxybenzenesulfonamide]", "IC50": 150},
      {"smiles": "Cc1ccc(F)c([C@@H](C)[C@H](NS(=O)(=O)c2ccc(Cl)cc2C(=O)O)c2n[nH]c(=O)o2)c1C", "note": "[Example 210, 5-chloro-2-(N-((1S,2R)-2-(6-fluoro-2,3-dimethylphenyl)-1-(5-oxo-4,5-dihydro-1,3,4-oxadiazol-2-yl)propyl)sulfamoyl)benzoic acid]", "IC50": 180},
      {"smiles": "Cc1ccc(F)c([C@@H](C)[C@H](NS(=O)(=O)c2ccc(Cl)cc2C(N)=O)c2n[nH]c(=O)o2)c1", "note": "[Example 21, 5-chloro-2-(N-((1S,2R)-2-(2-fluoro-5-methylphenyl)-1-(5-oxo-4,5-dihydro-1,3,4-oxadiazol-2-yl)propyl)sulfamoyl)benzamide]", "IC50": 240},
      {"smiles": "Cc1ccc(F)c([C@@H](C)[C@H](NS(=O)(=O)c2ccc(Cl)s2)c2n[nH]c(=O)o2)c1C", "note": "[Example 158, 5-chloro-N-((1S,2R)-2-(6-fluoro-2,3-dimethylphenyl)-1-(5-oxo-4,5-dihydro-1,3,4-oxadiazol-2-yl)propyl)thiophene-2-sulfonamide]", "IC50": 450}
    ]}
  ]
}
